Results published in patent US20140018242A1, “METHOD OF CROP ENHANCEMENT” (SYNGENTA PARTICIPATIONS AG, priority 2010, published 2014).

How the values were obtained:
Type in all cases: in vivo
Spring-wheat = assay: Foliar application to spring-wheat, effects on water consumption, plant height; settings: 26 days after spray; for water consumption: foliar spray 50 ga/ha (EC050) 21 days after sowing, no watering after spray; for plant height: foliar spray 50 ga/ha (EC050)
Protocol: Wheat plants were grown in a climate chamber at 18° C., 14 h daytime and 10 h night, at 70% rel.humidity. Plants were sprayed 21 days after sowing with a 50 ga/ha of the test compound, formulated as a standard EC050. Water status was adjusted before spray for all pots and plants not watered anymore after spray. After growing further 26 days in the controlled environment the plant height, and water consumption was determined.

Soybeans (Glycine max) [1] = assay: Foliar application to soybeans, effects on water consumption, plant height, chlorophyll content; settings: soybean, 26 days after spray; for water consumption: foliar spray 100 ga/ha (EC050) 21 days after sowing, no watering after spray; for plant height / chlorophyll content: foliar spray 100 ga/ha (EC050); for chlorophyll content: third trifoliate-leaf
Protocol: Soybean plants were grown in a climate chamber at 22° C. during 14 h daytime and 20° C. during 10 h night at 70% rel.humidity. Plants were sprayed 21 days after sowing with a 100 ga/ha of the test compound, formulated as a standard EC050. Water status was adjusted befor spray for all pots, and plants not watered anymore after spray. After growing further 26 days in the controlled environment, the plant height, chlorophyll content of the third trifoliate-leaf, and water consumption was determined.

Soybeans (Glycine max) [2] = assay: Foliar application to soybeans, effects on yield (number and size of pods, root parameters); settings: 68 g AI/ha foliar, 29DAA; for No. of root tips, Mean (in %) relative to check / Root length, Mean (in %) relative to check: WinRhizo; for Mean no. of pods per plant, only pods >20 mm: check 1.8; for Mean no. of pods per plant, all pods considered: check 5.4; for pod length - sum per trmt (mm), only pods >20 mm: check 276; for pod length - sum per trmt (mm), all pods considered: check 452
Protocol: Three week old soybean plants (5 replicates) were sprayed with respective test solutions. Test solutions contained the formulated test compound and the adjuvant Mero (0.1% v/v). Plants were kept under glasshouse conditions at 22° C. with a photo-period of 14 h. 29d after application the individual number and size of pods per plant were measured. Additionally, the overall root system of individual plants was scanned and analysed by the image analysis software ‘WinRhizo’ (Regent Instruments Inc., 2009). […] The average number of taller pods (related to number of seeds) was increased.

Soybeans (Glycine max) [3] = assay: Soil application (drench) to soybeans in rhizoboxes, effects on root system and shoot; settings: 30DAA; for Stem thickness (mm) below respective leaf, Mean / leaf area (cm^2), Mean: 0.12 mg AI per plant drench
Protocol: Three two-week old soybean plants were transplanted to ‘rhizoboxes’ (ca. 12 L soil volume). One day later 0.12 mg Al of compound T1.070, wherein G is CO2Et, were applied (drench) to each plant. Plants were kept under glasshouse conditions at 22° C. with a photo-period of 14 h. 30 DAA the entire root system per rhizobox was scanned and analysed by the image analysis software ‘WinRhizo’ (Regent Instruments Inc., 2009).

Barley (Hordeum vulqare) = assay: Foliar application to barley, plant growth effects (plant height, tillers); settings: 12.5 ppm foliar, 9DAA; for av. tillers per plant: check 0
Protocol: Five replicates (pots with three 10d old barley plants each) were sprayed with respective test solutions. Test solutions contained the formulated test compound and the adjuvant Mero (0.1% v/v). Plants were kept under glasshouse conditions at 22° C. with a photo period of 14 h. 9d after application the average plant height per replicate was measured and the number of tillers per replicate was counted. […] Additionally, the number of tillers were increased.

[4] = test system: French beans (Phaseolus vulgaris); assay: Soil application to French beans, effects on flowering (BBCH) and plant physiology (NDVI, NIR); design: NIR (Near infrared band reflectance): unit not given here; settings: 0.01 mg AI per plant drench, mean of 4 reps
Protocol: Four two week old French bean plants were treated with 0.01 mg Al per plant as soil application (drench). Plants were kept under glasshouse conditions at 22° C. with a photo-period of 14 h. 15DAA the development stage of blossoms was assessed. 25DAA the photosynthetic capacity of plants (NDVI, NIR) was measured.

[5] = soybean, drench 0.12 mg AI per plant
[6] = soybean, drench 0.12 mg AI per plant, entire root system per rhizobox, WinRhizo

| Compound | water consumption (Spring-wheat) [ml/26 days] | plant height (Spring-wheat) [cm] | water consumption (Soybeans (Glycine max) [1]) [ml/26 days] | plant height (Soybeans (Glycine max) [1]) [cm] | chlorophyll content (Soybeans (Glycine max) [1]) [reflectance] | No. of root tips, Mean (in %) relative to check (Soybeans (Glycine max) [2]) [%] | Root length, Mean (in %) relative to check (Soybeans (Glycine max) [2]) [%] | Mean no. of pods per plant, only pods >20 mm (Soybeans (Glycine max) [2]) | Mean no. of pods per plant, all pods considered (Soybeans (Glycine max) [2]) | pod length - sum per trmt (mm), only pods >20 mm (Soybeans (Glycine max) [2]) [mm] | pod length - sum per trmt (mm), all pods considered (Soybeans (Glycine max) [2]) [mm] | av. plant height (cm) (Barley (Hordeum vulqare)) | av. tillers per plant (Barley (Hordeum vulqare)) | further results |
| --- | --- | --- | --- | --- | --- | --- | --- | --- | --- | --- | --- | --- | --- | --- |
| CCOC(=O)OC1=C(c2c(C)cc(Cl)cc2C)C(=O)N(C)C12CCN(OC)CC2 [T1.067, wherein G is CO2Et] | 219 | 26.9 | 376 | 16.5 | 43.4 | 18.8 | 16.1 | 3.4 | 6.0 | 545 | 682 |  |  |  |
| CCOC(=O)OC1=C(c2c(C)cc(C)cc2C)C(=O)N(C)C12CCN(OC)CC2 [T1.070, wherein G is CO2Et] | 208 | 27.4 | 393 | 17.3 | 39.9 | 43.7 | 32.0 | 3.2 | 5.8 | 516 | 674 |  |  | Stem thickness (mm) below respective leaf, Mean (Soybeans (Glycine max) [3]; 1st trifoliate leaf, untreated 2.04): 2.39 mm; leaf area (cm^2), Mean (Soybeans (Glycine max) [3]; 1st trifoliate leaf, untreated 42.95): 60.59 cm^2; Stem thickness (mm) below respective leaf, Mean (Soybeans (Glycine max) [3]; 1st true leaves, untreated 2.31): 2.87 mm; leaf area (cm^2), Mean (Soybeans (Glycine max) [3]; 1st true leaves, untreated 28.54): 39.82 cm^2; Stem thickness (mm) below respective leaf, Mean (Soybeans (Glycine max) [3]; 2nd trifoliate leaf, untreated 1.87): 2.09 mm; leaf area (cm^2), Mean (Soybeans (Glycine max) [3]; 2nd trifoliate leaf, untreated 58.76): 72.44 cm^2; Stem thickness (mm) below respective leaf, Mean (Soybeans (Glycine max) [3]; 3rd trifoliate leaf, untreated 1.60): 1.86 mm; leaf area (cm^2), Mean (Soybeans (Glycine max) [3]; 3rd trifoliate leaf, untreated 58.01): 77.72 cm^2; Stem thickness (mm) below respective leaf, Mean (Soybeans (Glycine max) [3]; 4th trifoliate leaf, untreated 1.11): 1.32 mm; leaf area (cm^2), Mean (Soybeans (Glycine max) [3]; 4th trifoliate leaf, untreated 18.09): 27.48 cm^2; Shoot growth (plant growth) (Soybeans (Glycine max) [3]; [5]): Enhanced plant growth was also observed by fortified shoot growth.; Visual impression of root system (Soybeans (Glycine max) [3]; [5]): clearly enhanced root system; Root parameters relative to check: Length (cm), rel. to check (0%) (Soybeans (Glycine max) [3]; [6]): 41.3%; Root parameters relative to check: RootVolume (cm3), rel. to check (0%) (Soybeans (Glycine max) [3]; [6]): 52.2%; Root parameters relative to check: SurfaceArea (cm2), rel. to check (0%) (Soybeans (Glycine max) [3]; [6]): 46.6%; Root parameters relative to check: Tips, rel. to check (0%) (Soybeans (Glycine max) [3]; [6]): 63.1% |
| CCOC(=O)OC1=C(c2c(C)cc(Br)cc2C)C(=O)NC12CCN(OC)CC2 [T1iii.66, wherein G is CO2Et] |  |  |  |  |  |  |  |  |  |  |  | 27.2 | 4.2 |  |
| CCOC(=O)OC1=C(c2c(C)cc(Cl)cc2C)C(=O)NC12CCN(OC)CC2 [T1iii.67, wherein G is CO2Et] | 218 | 27.9 | 379 | 16.5 | 44.6 |  |  |  |  |  |  | 24.4 | 3.8 |  |
| CCOC(=O)OC1=C(c2c(C)cc(C)cc2C)C(=O)N(OCOC)C12CCN(OC)CC2 [T20ii.070, wherein G is CO2Et] |  |  |  |  |  |  |  |  |  |  |  |  |  | BBCH (plant growth stage) ([4]; 15DAA, check 57): 59; NDVI (Normalized difference vegetative index) ([4]; 25DAA, check 0.431): 0.539; NIR (Near infrared band reflectance) ([4]; 25DAA, check 4.32): 4.65 |
